The text below walks through data of ChEMBL document CHEMBL4665719, “Development of SKI-349, a dual-targeted inhibitor of sphingosine kinase and microtubule polymerization” (Bioorg Med Chem Lett, 2020).

Molecules are shown by their SMILES. pIC50: −log10 of the molar value. Activity calls are given as the source filed them. The rule behind the calls is not given here.

Assay [1] has as its target T1, Sphingosine kinase 1/2 (Homo sapiens) (UniProt Q9NRA0+Q9NYA1). Nature of the assay: Inhibition of SPHK1/SPHK2 in human HL-60 cells assessed as induction of apoptosis by measuring spindle assembly checkpoint arrest at 3 nM after 16 hrs by Western blot analysis. It is filed as cell-based. For orientation: In western blotting, separated proteins are transferred to a membrane and probed.

Assay [2] addresses T2, Tubulin (Homo sapiens) (UniProt P68371+Q9H4B7+P0DPH7+P68366+Q13509+Q71U36+P04350+Q3ZCM7+P07437+P68363+Q9BQE3+Q6PEY2+Q13885+Q9BVA1+Q9BUF5). Description: Inhibition of tubulin polymerization in human MOLM-13 cells assessed as disruption of microtubule network at 200 nM after 18 hrs by FITC-staining based flow cytometry analysis. It is filed as cell-based. Background: Flow cytometry measures light scatter and fluorescence of single cells or particles in a stream.

Assay [3] has as its target T2, Tubulin (Homo sapiens). Description: Inhibition of tubulin polymerization in human MOLM-13 cells assessed as disruption of microtubule network at 100 nM after 18 hrs by FITC-staining based flow cytometry analysis. It is filed as cell-based.
Assay [4] concerns HL-60. Description: Cytotoxicity against human HL-60 cells assessed as reduction in cell viability after 48 hrs by MTT assay. It is filed as functional, cell-based. Particulars: HL-60, 48 h. Background: Tetrazolium assays rely on reduction of a dye to a coloured formazan, in cell work by metabolically active cells.
Assay [5] can be described thus: Cytotoxicity against human HL60/VCR cells assessed as reduction in cell viability after 48 hrs by MTT assay. It is filed as functional, cell-based.
Assay [6] concerns the target Sphingosine kinase 1 (Homo sapiens, UniProt Q9NYA1). Description: Inhibition of recombinant His6x-tagged human SphK1 expressed in HEK293 cells assessed as reduction in S1P formation using D-erythro-sphingosine as substrate by […].
The target in assay [7] is T1, Sphingosine kinase 1/2 (Homo sapiens). Nature of the assay: Inhibition of SPHK1/SPHK2 in human HL-60 cells assessed as sphingosine level assessed per 10^6 cells at 5 uM after 24 hrs by LC-ESI/MS analysis (reference value: 18.3 +/- 3.5 pmol). It is filed as cell-based.
Assay [8] has the same target. Nature of the assay: Inhibition of SPHK1/SPHK2 in human HL-60 cells assessed as sphingosine-1-phosphate level assessed per 10^6 cells at 5 uM after 24 hrs by LC-ESI/MS analysis (reference value: 3.1 +/- 0.3 pmol). It is filed as cell-based.
Assay [9] shares this target. Description: Inhibition of SPHK1/SPHK2 in human HL-60 cells assessed as C16:0 ceramide level assessed per 10^6 cells at 5 uM after 24 hrs by LC-ESI/MS analysis (reference value: 33.5 +/- 4.1 pmol). It is filed as cell-based.
For assay [10] the target is unchanged. Nature of the assay: Inhibition of SPHK1/SPHK2 in human HL-60 cells assessed as C18:0 ceramide level assessed per 10^6 cells at 5 uM after 24 hrs by LC-ESI/MS analysis (reference value: 1.6 +/- 0.2 pmol). It is filed as cell-based.
The target in assay [11] is Cyclin-dependent kinase 1 (Homo sapiens) (UniProt P06493). Description: Activation of CDK1 in human HL60/VCR cells assessed as induction of Bcl2 phosphorylation at Ser70 residue at 5 uM after 24 hrs in presence of Ro-3306 by Western blot analysis. It is filed as cell-based.
Chain of Cyclin-dependent kinase 1 (Homo sapiens) (P06493 whole entry, looked up): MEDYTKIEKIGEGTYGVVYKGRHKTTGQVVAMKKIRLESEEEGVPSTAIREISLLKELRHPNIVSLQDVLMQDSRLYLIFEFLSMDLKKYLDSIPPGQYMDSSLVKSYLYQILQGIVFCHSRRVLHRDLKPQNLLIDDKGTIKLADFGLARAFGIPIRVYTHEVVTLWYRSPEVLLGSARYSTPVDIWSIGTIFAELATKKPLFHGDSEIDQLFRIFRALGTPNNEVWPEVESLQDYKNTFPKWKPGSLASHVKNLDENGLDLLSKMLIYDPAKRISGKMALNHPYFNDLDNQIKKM
Assay [12] shares this target. Nature of the assay: Activation of CDK1 in human HL60/VCR cells assessed as activation of caspase 7 at 5 uM after 24 hrs in presence of Ro-3306 by Western blot analysis. It is filed as cell-based.
For assay [13] the target is unchanged. Nature of the assay: Activation of CDK1 in human HL-60 cells assessed as induction of Bcl2 phosphorylation at Ser70 residue at 5 uM after 24 hrs in presence of Ro-3306 by Western blot analysis. It is filed as cell-based.
Assay [14] has the same target. Nature of the assay: Activation of CDK1 in human HL-60 cells assessed as activation of caspase 7 at 5 uM after 24 hrs in presence of Ro-3306 by Western blot analysis. It is filed as cell-based.
For assay [15], the target named is T1, Sphingosine kinase 1/2 (Homo sapiens). Nature of the assay: Inhibition of SPHK1/SPHK2 in human HL-60 cells assessed as induction of apoptosis by measuring spindle assembly checkpoint arrest at 20 nM after 16 hrs by Western blot analysis. It is filed as cell-based.

T1 sequence (Q9NRA0 whole entry, looked up): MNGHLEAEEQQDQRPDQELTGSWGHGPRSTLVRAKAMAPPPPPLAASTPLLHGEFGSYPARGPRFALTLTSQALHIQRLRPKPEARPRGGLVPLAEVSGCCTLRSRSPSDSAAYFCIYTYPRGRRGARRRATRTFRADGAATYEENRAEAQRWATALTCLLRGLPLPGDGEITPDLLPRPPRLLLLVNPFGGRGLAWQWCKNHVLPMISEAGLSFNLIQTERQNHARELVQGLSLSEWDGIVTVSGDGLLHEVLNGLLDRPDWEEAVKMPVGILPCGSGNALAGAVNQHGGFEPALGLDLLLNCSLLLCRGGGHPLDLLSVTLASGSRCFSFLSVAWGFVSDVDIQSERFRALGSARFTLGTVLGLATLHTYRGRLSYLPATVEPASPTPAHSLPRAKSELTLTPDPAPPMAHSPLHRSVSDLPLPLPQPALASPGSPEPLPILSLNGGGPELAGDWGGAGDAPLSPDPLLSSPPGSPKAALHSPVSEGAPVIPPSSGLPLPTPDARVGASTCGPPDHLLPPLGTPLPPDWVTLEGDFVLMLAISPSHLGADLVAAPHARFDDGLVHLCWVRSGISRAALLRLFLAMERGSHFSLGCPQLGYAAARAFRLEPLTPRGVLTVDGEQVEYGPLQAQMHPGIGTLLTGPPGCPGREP
T1 sequence (Q9NYA1 whole entry, looked up): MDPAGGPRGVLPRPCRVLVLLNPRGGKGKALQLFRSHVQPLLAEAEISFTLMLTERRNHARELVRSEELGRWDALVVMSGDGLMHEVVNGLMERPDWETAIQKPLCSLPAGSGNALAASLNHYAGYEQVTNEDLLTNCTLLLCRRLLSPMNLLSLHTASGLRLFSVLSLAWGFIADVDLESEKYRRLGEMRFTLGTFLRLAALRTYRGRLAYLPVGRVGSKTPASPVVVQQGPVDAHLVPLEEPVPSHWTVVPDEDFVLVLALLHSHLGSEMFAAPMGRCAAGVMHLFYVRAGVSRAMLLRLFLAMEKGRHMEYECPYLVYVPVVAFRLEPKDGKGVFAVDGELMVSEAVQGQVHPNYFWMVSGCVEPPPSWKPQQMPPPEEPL
Chain of Sphingosine kinase 1 (Q9NYA1 whole entry): as the sequence (Q9NYA1 whole entry, looked up) above

With `Cc1ccc(C(=O)N(CCCN)[C@@H](c2nc3cc(Cl)ccc3c(=O)n2Cc2ccccc2)C(C)C)cc1`, in assay [1], the outcome was Active.
As to `CC[C@]1(O)C[C@H]2CN(CCc3c([nH]c4ccccc34)[C@@](C(=O)OC)(c3cc4c(cc3OC)N(C=O)[C@H]3[C@@](O)(C(=O)OC)[C@H](OC(C)=O)[C@]5(CC)C=CCN6CC[C@]43[C@@H]65)C2)C1`, the inhibition entry in assay [2] was “Active”.
`CC(=O)O[C@H]1C(=O)[C@@]2(C)[C@H]([C@H](OC(=O)c3ccccc3)[C@]3(O)C[C@H](OC(=O)[C@H](O)[C@@H](NC(=O)c4ccccc4)c4ccccc4)C(C)=C1C3(C)C)[C@]1(OC(C)=O)CO[C@@H]1C[C@@H]2O`: in assay [3], the inhibition entry is “Active”.
The pIC50 is the negative decadic logarithm of the IC50, by convention in mol/L. Consider `COc1ccc(-c2cc(C(=O)N/N=C(\C)c3ccc(OC)c(OC)c3)[nH]n2)cc1`, for which the figures for the pIC50 in assay [4], in assay [5] and in assay [6] were 6.33, 5.96 and 5.52, respectively. The Activity is 28.7 pmol in [7], 3.2 pmol in assay [8], 84 pmol in assay [9] and 4.8 pmol in assay [10]. The result in assay [11], in assay [12], in assay [13] and in assay [14] was inactive.
Take `CC[C@@H]1C(=O)N(C)c2cnc(Nc3ccc(C(=O)N[C@H]4CC[C@H](N5CCN(CC6CC6)CC5)CC4)cc3OC)nc2N1C(C)C`: the outcome in [15] was Active.
